Measured values taken from the supplement of paper PMC10307832.

How the values were obtained:
Assay in all cases: relative viability (nuclei count vs DMSO), 5 days (fraction); higher = more cells survive
Bexarotene + Palbociclib = compound: C=C(c1ccc(C(=O)O)cc1)c1cc2c(cc1C)C(C)(C)CCC2(C)C [Bexarotene] + CC(=O)c1c(C)c2cnc(Nc3ccc(N4CCNCC4)cn3)nc2n(C2CCCC2)c1=O [Palbociclib] (partner 0.5 µM)
In short: (§1)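 Lung cancer cell lines in 1536-well plates were dosed by pin tool the day after seeding, either with one drug alone or with a fixed anchor-drug dose plus five library-drug doses (not always all listed) in √10 steps. After 5 days, cells were fixed and their nuclei stained in one step (final 0.05% Triton X-100, 1% formaldehyde, 1 ug/ml Hoechst), then counted on 4× images. Relative viability is the nuclei count in treated wells divided by that in vehicle wells. Values are medians of duplicate plates.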

Bexarotene + Bortezomib = compound: C=C(c1ccc(C(=O)O)cc1)c1cc2c(cc1C)C(C)(C)CCC2(C)C [Bexarotene] + CC(C)C[C@H](NC(=O)[C@H](Cc1ccccc1)NC(=O)c1cnccn1)B(O)O [Bortezomib] (partner 0.002 µM)
In short: as §1

Bexarotene + Foretinib = compound: C=C(c1ccc(C(=O)O)cc1)c1cc2c(cc1C)C(C)(C)CCC2(C)C [Bexarotene] + COc1cc2c(Oc3ccc(NC(=O)C4(C(=O)Nc5ccc(F)cc5)CC4)cc3F)ccnc2cc1OCCCN1CCOCC1 [Foretinib] (partner 0.25 µM)
In short: as §1

Bexarotene + Pictilisib = compound: C=C(c1ccc(C(=O)O)cc1)c1cc2c(cc1C)C(C)(C)CCC2(C)C [Bexarotene] + CS(=O)(=O)N1CCN(Cc2cc3nc(-c4cccc5[nH]ncc45)nc(N4CCOCC4)c3s2)CC1 [Pictilisib] (partner 1 µM)
In short: as §1

Cell Line	relative viability (Bexarotene + Palbociclib; first compound 0.08 µM)	relative viability (Bexarotene + Palbociclib; first compound 0.253 µM)	relative viability (Bexarotene + Palbociclib; first compound 0.8 µM)	relative viability (Bexarotene + Palbociclib; first compound 2.53 µM)	relative viability (Bexarotene + Palbociclib; first compound 8 µM)	relative viability (Bexarotene + Bortezomib; first compound 0.08 µM)	relative viability (Bexarotene + Bortezomib; first compound 0.253 µM)	relative viability (Bexarotene + Bortezomib; first compound 0.8 µM)	relative viability (Bexarotene + Bortezomib; first compound 2.53 µM)	relative viability (Bexarotene + Bortezomib; first compound 8 µM)	relative viability (Bexarotene + Foretinib; first compound 0.08 µM)	relative viability (Bexarotene + Foretinib; first compound 0.253 µM)	relative viability (Bexarotene + Foretinib; first compound 0.8 µM)	relative viability (Bexarotene + Foretinib; first compound 2.53 µM)	relative viability (Bexarotene + Foretinib; first compound 8 µM)	relative viability (Bexarotene + Pictilisib; first compound 0.08 µM)	relative viability (Bexarotene + Pictilisib; first compound 0.253 µM)	relative viability (Bexarotene + Pictilisib; first compound 0.8 µM)	relative viability (Bexarotene + Pictilisib; first compound 2.53 µM)	relative viability (Bexarotene + Pictilisib; first compound 8 µM)
201T	0.345	0.33	0.315	0.361	0.312	1.08	1.1	1.07	1.08	1.05	1.17	1.25	1.17	1.06	0.976	0.745	0.631	0.612	0.639	0.596
A-427	0.48	0.47	0.467	0.444	0.487	0.933	0.923	0.79	0.897	0.932	1.14	0.932	0.941	1.05	0.868	0.79	0.667	0.613	0.537	0.569
ABC-1	0.617	0.676	0.662	–	0.655	0.3	0.311	0.269	0.291	0.336	0.991	1.19	1.13	0.855	1.08	0.662	0.63	0.606	0.697	0.615
BEN	0.444	0.467	0.442	0.456	0.502	0.905	0.599	0.672	0.496	0.649	0.802	0.387	0.567	0.318	0.674	0.674	0.576	0.495	0.452	0.571
CAL-12T	0.442	0.465	0.342	0.417	0.441	1.02	–	0.849	–	0.816	1.31	1.1	1.19	1.03	0.977	0.333	–	0.396	–	0.361
COR-L23	0.283	0.274	0.279	0.257	0.274	1.06	0.989	0.898	0.933	0.892	0.999	1.06	0.908	0.952	1.05	0.735	0.759	0.5	0.67	0.52
COR-L 105	0.382	0.368	0.409	0.421	0.392	0.98	0.98	0.988	0.965	0.909	1.07	1.05	1.07	1.12	0.833	0.473	0.397	0.331	0.385	0.39
Calu-6	–	–	–	–	–	1	0.915	0.904	0.922	1.27	0.973	0.901	0.752	0.886	1.02	0.944	0.926	0.911	1.11	0.884
ChaGo-K-1	1.09	0.983	0.99	0.967	1.01	1.04	1.03	1.05	–	1.06	1.07	0.963	0.976	0.936	0.919	0.902	0.679	0.875	–	0.801
EKVX	0.37	0.366	0.384	0.438	0.362	0.999	1.28	1.07	1.1	1.09	0.666	0.915	0.925	0.822	0.711	0.352	0.432	0.446	0.357	0.404
EMC-BAC-2	0.538	0.529	0.508	–	0.502	1.24	1.03	0.97	1.05	1.03	0.912	1.09	0.998	0.964	0.993	0.618	0.561	0.52	0.554	0.469
EPLC-272H	0.313	0.358	0.312	0.314	0.354	0.968	0.875	0.538	0.776	0.822	0.666	0.555	0.75	0.588	0.737	0.373	0.308	0.33	0.298	0.352
H3255	0.333	0.335	0.316	0.344	0.346	0.733	0.919	0.784	0.65	0.856	1.01	0.821	0.906	0.779	0.748	0.574	0.504	0.607	0.493	0.528
HARA	0.269	0.239	0.243	0.294	0.277	1.16	1.04	1.02	1.02	1.03	0.759	0.472	0.85	0.941	0.701	0.407	0.317	0.377	0.32	0.41
HCC-15	0.779	0.925	0.753	0.794	0.726	1.06	1.13	1.05	0.959	1.01	1.09	1.07	1.05	1.05	0.996	0.798	0.743	0.656	0.644	0.632
HCC-44	1	1.03	0.836	0.93	0.946	0.997	1	0.851	0.823	0.822	–	–	–	–	–	0.661	0.663	0.479	0.579	0.459
HCC-78	0.518	0.416	0.403	0.473	0.509	0.442	0.453	0.491	0.524	0.5	0.54	0.499	0.547	0.523	0.468	0.228	0.196	0.215	0.182	0.194
HCC-366	0.424	0.42	0.365	0.416	0.4	1.07	0.979	1.02	1.08	1.06	0.94	0.989	0.962	0.969	0.834	0.23	0.178	0.165	0.141	0.29
HCC-827	0.508	0.497	0.466	0.482	0.497	0.994	1.11	0.992	0.989	1	1.07	1.02	0.992	1.09	0.976	1.07	1.08	0.888	1.02	0.971

Cell Line	relative viability (Bexarotene + Palbociclib; first compound 0.08 µM)	relative viability (Bexarotene + Palbociclib; first compound 0.253 µM)	relative viability (Bexarotene + Palbociclib; first compound 0.8 µM)	relative viability (Bexarotene + Palbociclib; first compound 2.53 µM)	relative viability (Bexarotene + Palbociclib; first compound 8 µM)	relative viability (Bexarotene + Bortezomib; first compound 0.08 µM)	relative viability (Bexarotene + Bortezomib; first compound 0.253 µM)	relative viability (Bexarotene + Bortezomib; first compound 0.8 µM)	relative viability (Bexarotene + Bortezomib; first compound 2.53 µM)	relative viability (Bexarotene + Bortezomib; first compound 8 µM)	relative viability (Bexarotene + Foretinib; first compound 0.08 µM)	relative viability (Bexarotene + Foretinib; first compound 0.253 µM)	relative viability (Bexarotene + Foretinib; first compound 0.8 µM)	relative viability (Bexarotene + Foretinib; first compound 2.53 µM)	relative viability (Bexarotene + Foretinib; first compound 8 µM)	relative viability (Bexarotene + Pictilisib; first compound 0.08 µM)	relative viability (Bexarotene + Pictilisib; first compound 0.253 µM)	relative viability (Bexarotene + Pictilisib; first compound 0.8 µM)	relative viability (Bexarotene + Pictilisib; first compound 2.53 µM)	relative viability (Bexarotene + Pictilisib; first compound 8 µM)
HOP-62	0.502	0.516	0.451	0.409	0.491	0.611	1.05	0.916	0.645	0.81	1.35	1.28	1.23	1.14	1.08	1.04	0.811	0.684	0.79	0.626
IA-LM	–	–	–	–	–	0.683	0.697	0.596	0.662	0.518	1.03	1.14	0.98	0.935	0.93	0.335	0.314	0.476	0.313	0.319
LC-2-ad	0.427	0.5	0.473	0.434	0.46	0.936	1.16	1.09	0.936	0.985	0.976	1.01	0.969	0.982	0.893	0.809	0.473	0.433	0.503	0.381
LCLC-97TM1	0.211	0.245	0.168	0.177	0.185	0.58	0.625	0.468	0.126	0.575	0.891	1	0.887	0.933	0.969	0.265	0.188	0.209	0.214	0.213
LK-2	0.656	0.825	0.702	0.695	0.669	–	–	–	–	–	1.42	1.27	1.54	–	1.68	0.933	0.711	0.824	0.659	0.785
NCI-H358	0.129	0.138	0.154	0.124	0.138	–	–	–	–	–	0.8	0.929	0.708	0.818	0.722	0.377	0.364	0.376	0.435	0.351
NCI-H522	1.04	0.887	1.07	1.14	1.04	–	–	–	–	–	–	–	–	–	–	–	–	–	–	–
NCI-H596	–	–	–	–	–	1.01	0.986	0.836	0.795	0.85	0.781	0.61	0.813	0.853	0.858	0.397	0.441	0.299	0.363	0.426
NCI-H1395	0.583	0.638	0.615	0.618	0.618	–	–	–	–	–	1.07	1.02	1.04	0.949	1.09	0.678	0.603	0.571	0.807	0.762
NCI-H1563	–	–	–	–	–	0.9	0.814	0.741	0.83	0.98	1.04	0.868	0.824	0.989	0.85	0.736	0.647	0.685	0.696	0.661
NCI-H1648	0.222	0.313	0.229	0.235	0.23	–	–	–	–	–	–	–	–	–	–	–	–	–	–	–
NCI-H1703	–	–	–	–	–	0.254	0.253	0.258	0.227	0.27	0.393	0.377	0.411	0.399	0.42	0.247	0.239	0.209	0.247	0.262
NCI-H1792	0.706	0.611	0.616	0.588	0.607	0.871	0.981	0.809	0.761	0.681	–	–	–	–	–	0.244	0.204	0.213	0.252	0.205
NCI-H1793	0.31	0.318	0.284	0.264	0.327	–	–	–	–	–	0.732	0.813	0.763	0.629	0.676	0.52	0.547	0.508	0.316	0.431
NCI-H1944	0.419	0.427	0.369	0.379	0.345	–	–	–	–	–	1.25	1.09	1.04	1.16	0.965	0.388	0.391	0.336	0.374	0.37
NCI-H2170	0.343	0.403	0.324	0.325	0.331	–	–	–	–	–	1.03	1.03	0.983	0.922	0.977	0.352	0.307	0.302	0.271	0.268
NCI-H2342	0.522	0.556	0.525	0.54	0.608	–	–	–	–	–	1.01	1.02	1.09	1.12	1.05	–	–	–	–	–
SK-MES-1	0.347	0.352	0.314	0.313	0.267	–	–	–	–	–	1.1	0.959	1.02	1.03	0.866	0.397	0.408	0.466	0.329	0.399
SW 900	0.553	0.41	0.52	0.423	0.411	–	–	–	–	–	0.991	0.881	0.901	1	0.862	–	–	–	–	–
